According to publication PMC11051198, “Synthesis and Late-Stage Modification of (−)-Doliculide Derivatives Using Matteson’s Homologation Approach” (Marine Drugs, 2024):

Assays:
Type in all cases: cell-based
CHO-K1 = experiment: MTT cytotoxicity assay, CHO-K1; details: CHO-K1 mutagenized Chinese hamster ovary, 5 d incubation, 37 °C, 5% CO2, DMEM + 10% FBS, mean ± SD of two independent measurements
Procedure: (§1) The cell cultures were cultivated at 37 °C under an atmosphere containing 5% CO2. Before usage, Dulbecco’s Modified Eagle Medium (DMEM) from Gibco (Thermo Fisher Scientific) was supplemented with 10% fetal bovine serum (FBS) from Gibco. Cells were used between passage 5 and 30 and were split separately for at least two passages to obtain biological repeats. Cells were washed with PBS and 0.5 mL trypsin was added before treatment. Cells were then incubated for 5 min before adding 10 mL medium containing 10% FBS. Per well, 120 µL cell suspension 5 × 10^4 cells/mL (CHO-K1, HCT-116. U-2 OS, KB3.1) or 1 × 10^5 cells/mL (HepG2) cells were seeded in transparent 96-well cell bind plate and incubated for 2 h at 37 °C and an atmosphere of 5% CO2. Each compound was tested in a serial dilution so that the starting concentration is 111 µg/mL, which is diluted by 1:3 as well as the internal solvent control prepared in DMEM with 10% FBS. After 5 d incubation at 37 °C and an atmosphere of 5% CO2, 20 μL of 5 mg/mL MTT (thiazolyl blue tetrazolium bromide) in PBS was added per well and cells were further incubated until coloration of the cells. The medium was then discarded and 100 μL 2-propanol/10 N HCl (250:1) added to the cells. The plates were analyzed by measuring the absorbance at 570 nm and 630 nm as reference using a microplate reader Infinite® 200 Pro from Tecan (Männedorf, Switzerland). Absorption is then converted to cell viability expressed as percentage relative to the respective solvent control. The calculated percentage of growth inhibition were determined by sigmoidal curve fitting using GraphPad (Boston, MA, USA) Prism software (version 10.0.2). Two independent measurements were generated for mean and standard deviation.

HCT-116 = experiment: MTT cytotoxicity assay, HCT-116; details: HCT-116 human colon carcinoma, 5 d incubation, 37 °C, 5% CO2, DMEM + 10% FBS, mean ± SD of two independent measurements
Procedure: as §1

KB3.1 = experiment: MTT cytotoxicity assay, KB3.1; details: KB3.1 human epidermoid carcinoma cell line, 5 d incubation, 37 °C, 5% CO2, DMEM + 10% FBS, mean ± SD of two independent measurements
Procedure: as §1

HepG2 = experiment: MTT cytotoxicity assay, HepG2; details: HepG2 human hepatocellular carcinoma, 5 d incubation, 37 °C, 5% CO2, DMEM + 10% FBS, mean ± SD of two independent measurements
Procedure: as §1

U-2 OS = experiment: MTT cytotoxicity assay, U-2 OS; details: U-2 OS human bone osteosarcoma, 5 d incubation, 37 °C, 5% CO2, DMEM + 10% FBS, mean ± SD of two independent measurements
Procedure: as §1

[1] = ≤ values: individual results varied widely, given as a range

SMILES | IC50 (CHO-K1) | IC50 (HCT-116; [1]) | IC50 (KB3.1; [1]) | IC50 (HepG2) | IC50 (U-2 OS; [1]) | IC50 (HCT-116) | IC50 (KB3.1) | IC50 (U-2 OS)
C[C@H]1C[C@@H](C)[C@@H](O)C[C@@H](CC#C[Si](C)(C)C)OC(=O)[C@@H](Cc2ccc(O)c(I)c2)N(C)C(=O)CNC(=O)[C@@H](C)C1 [Compound 8a, (3R,9S,11S,13R,14S,16R)-14-Hydroxy-3-(4-hydroxy-3-iodobenzyl)-4,9,11,13-tetramethyl-16-[3-(trimethylsilyl)prop-2-yn-1-yl]-1-oxa-4,7-diazacyclohexadecane-2,5,8-trione] | 380 ± 44 nM | 8 ± 7.3 nM | ≤ 115 nM | 20 ± 4.5 µM | 336 ± 146 nM | – | – | –
C[C@H]1C[C@@H](C)[C@@H](O)C[C@@H](CCCSCc2ccccc2)OC(=O)[C@@H](Cc2ccc(O)c(I)c2)N(C)C(=O)CNC(=O)[C@@H](C)C1 [Compound 11c, (3R,9S,11S,13R,14S,16R)-16-[3-(Benzylthio)propyl]-14-hydroxy-3-(4-hydroxy-3-iodobenzyl)-4,9,11,13-tetramethyl-1-oxa-4,7-diazacyclohexadecane-2,5,8-trione] | 391 ± 122 nM | 10.8 ± 1.2 nM | 37 ± 1 nM | > 50 µM | 582 ± 68 nM | – | – | –
C[C@H]1C[C@@H](C)[C@@H](O)C[C@@H](Cc2cn(CCOCCOCC(=O)O)nn2)OC(=O)[C@@H](Cc2ccc(O)c(I)c2)N(C)C(=O)CNC(=O)[C@@H](C)C1 [Compound 9d, 2-{2-[2-(4-{[(3R,9S,11S,13R,14S,16R)-14-Hydroxy-3-(4-hydroxy-3-iodobenzyl)-4,9,11,13-tetramethyl-2,5,8-trioxo-1-oxa-4,7-diazacyclohexadecan-16-yl]methyl}-1H-1,2,3-triazol-1-yl)ethoxy]ethoxy}acetic Acid] | > 46200 nM | – | – | > 46.2 µM | – | > 46200 nM | > 46200 nM | > 46200 nM
C[C@H]1C[C@@H](C)[C@@H](O)C[C@@H](Cc2cn(CCOCCOCCOCCNC(=O)OC(C)(C)C)nn2)OC(=O)[C@@H](Cc2ccc(O)c(I)c2)N(C)C(=O)CNC(=O)[C@@H](C)C1 [Compound 9g, tert-Butyl [2-(2-{2-[2-(4-{[(3R,9S,11S,13R,14S,16R)-14-hydroxy-3-(4-hydroxy-3-iodobenzyl)-4,9,11,13-tetramethyl-2,5,8-trioxo-1-oxa-4,7-diazacyclohexadecan-16-yl]methyl}-1H-1,2,3-triazol-1-yl)ethoxy]ethoxy}ethoxy)ethyl]carbamate] | 12900 ± 3000 nM | 432 ± 140 nM | – | > 39.7 µM | – | – | 3290 ± 1390 nM | 2940 ± 1750 nM
COc1ccc(C#CC[C@@H]2C[C@H](O)[C@H](C)C[C@H](C)C[C@H](C)C(=O)NCC(=O)N(C)[C@H](Cc3ccc(O)c(I)c3)C(=O)O2)cc1 [Compound 10b, (3R,9S,11S,13R,14S,16R)-14-Hydroxy-3-(4-hydroxy-3-iodobenzyl)-16-[3-(4-methoxyphenyl)prop-2-yn-1-yl]-4,9,11,13-tetramethyl-1-oxa-4,7-diazacyclohexadecane-2,5,8-trione] | 1460 ± 280 nM | 153 ± 56 nM | – | > 51.5 µM | – | – | 459000 ± 111000 nM | 1880 ± 110 nM
C[C@H]1C[C@@H](C)[C@@H](O)C[C@@H](CC#Cc2ccccc2)OC(=O)[C@@H](Cc2ccc(O)c(I)c2)N(C)C(=O)CNC(=O)[C@@H](C)C1 [Compound 10a, (3R,9S,11S,13R,14S,16R)-14-Hydroxy-3-(4-hydroxy-3-iodobenzyl)-4,9,11,13-tetramethyl-16-(3-phenylprop-2-yn-1-yl)-1-oxa-4,7-diazacyclohexadecane-2,5,8-trione] | 247 ± 145 nM | 14.5 ± 0.6 nM | 49 ± 29 nM | 15.5 ± 0.3 µM | 683 ± 87 nM | – | – | –
C[C@H]1C[C@@H](C)[C@@H](O)C[C@@H](CC#Cc2ccc([N+](=O)[O-])cc2)OC(=O)[C@@H](Cc2ccc(O)c(I)c2)N(C)C(=O)CNC(=O)[C@@H](C)C1 [Compound 10c, (3R,9S,11S,13R,14S,16R)-14-Hydroxy-3-(4-hydroxy-3-iodobenzyl)-4,9,11,13-tetramethyl-16-[3-(4-nitrophenyl)prop-2-yn-1-yl]-1-oxa-4,7-diazacyclohexadecane-2,5,8-trione] | 586 ± 205 nM | 10 ± 3 nM | 98 ± 41 nM | > 50.4 µM | 491 ± 95 nM | – | – | –
CCCCCn1cc(C[C@@H]2C[C@H](O)[C@H](C)C[C@H](C)C[C@H](C)C(=O)NCC(=O)N(C)[C@H](Cc3ccc(O)c(I)c3)C(=O)O2)nn1 [Compound 9b, (3R,9S,11S,13R,14S,16R)-14-hydroxy-3-(4-hydroxy-3-iodobenzyl)-4,9,11,13-tetramethyl-16-((1-pentyl-1H-1,2,3-triazol-4-yl)methyl)-1-oxa-4,7-diazacyclohexadecane-2,5,8-trione] | 69 ± 12 nM | ≤ 110 nM | 41 ± 14 nM | – | ≤ 110 nM | – | – | –
CCCCSCCC[C@@H]1C[C@H](O)[C@H](C)C[C@H](C)C[C@H](C)C(=O)NCC(=O)N(C)[C@H](Cc2ccc(O)c(I)c2)C(=O)O1 [Compound 11b, (3R,9S,11S,13R,14S,16R)-16-[3-(Butylthio)propyl]-14-hydroxy-3-(4-hydroxy-3-iodobenzyl)-4,9,11,13-tetramethyl-1-oxa-4,7-diazacyclohexadecane-2,5,8-trione] | 142 ± 85 nM | – | 28 ± 3 nM | > 52.5 µM | 238 ± 10 nM | > 52500 nM | – | –
C[C@H]1C[C@@H](C)[C@@H](O)C[C@@H](Cc2cn(CCOCCOCCNC(=O)OC(C)(C)C)nn2)OC(=O)[C@@H](Cc2ccc(O)c(I)c2)N(C)C(=O)CNC(=O)[C@@H](C)C1 [Compound 9f, tert-Butyl (2-{2-[2-(4-{[(3R,9S,11S,13R,14S,16R)-14-hydroxy-3-(4-hydroxy-3-iodobenzyl)-4,9,11,13-tetramethyl-2,5,8-trioxo-1-oxa-4,7-diazacyclohexadecan-16-yl]methyl}-1H-1,2,3-triazol-1-yl)ethoxy]ethoxy}ethyl)carbamate] | 6380 ± 2810 nM | 86 ± 79 nM | 722 ± 180 nM | > 41.7 µM | – | – | – | 1560 ± 670 nM
C#CC[C@@H]1C[C@H](O)[C@H](C)C[C@H](C)C[C@H](C)C(=O)NCC(=O)N(C)[C@H](Cc2ccc(O)c(I)c2)C(=O)O1 [Compound 8c, (3R,9S,11S,13R,14S,16R)-14-Hydroxy-3-(4-hydroxy-3-iodobenzyl)-4,9,11,13-tetramethyl-16-(prop-2-yn-1-yl)-1-oxa-4,7-diazacyclohexadecane-2,5,8-trione] | 474 ± 147 nM | 65 ± 16 nM | 114 ± 49 nM | 0.147 ± 0.065 µM | 49 ± 33 nM | – | – | –
C=CC[C@@H]1C[C@H](O)[C@H](C)C[C@H](C)C[C@H](C)C(=O)NCC(=O)N(C)[C@H](Cc2ccc(O)c(I)c2)C(=O)O1 [Compound 8b, (3R,9S,11S,13R,14S,16R)-16-Allyl-14-hydroxy-3-(4-hydroxy-3-iodobenzyl)-4,9,11,13-tetramethyl-1-oxa-4,7-diazacyclohexadecane-2,5,8-trione] | 264 ± 13 nM | 16 ± 8 nM | 103 ± 65 nM | > 60.2 µM | 521 ± 488 nM | – | – | –
CCOC(=O)CCSCCC[C@@H]1C[C@H](O)[C@H](C)C[C@H](C)C[C@H](C)C(=O)NCC(=O)N(C)[C@H](Cc2ccc(O)c(I)c2)C(=O)O1 [Compound 11d, Ethyl 3-({3-[(3R,9S,11S,13R,14S,16R)-14-hydroxy-3-(4-hydroxy-3-iodobenzyl)-4,9,11,13-tetramethyl-2,5,8-trioxo-1-oxa-4,7-diazacyclohexadecan-16-yl]propyl}-thio)propanoate] | 9840 ± 3870 nM | 60 ± 13 nM | – | > 49.4 µM | – | – | 3930 ± 1140 nM | 4900 ± 3870 nM
